The values that follow come from US8309110B2, “Biocide composition and sterilization method using the same” (priority 1998, dated 2012).

This assay deals with mixed solution of 8 types of bacteria. The assay can be described thus: MIC and synergistic index on a mixed solution of 8 types of bacteria, two fold dilution method. It is filed as cell-based. The following applies: 72 h; 30 degrees centigrade, 3 days, Tryptic Soy Broth; read-out: Qa: MIC value on the mixed strain of a single 3-isothiazolone. The procedure: The sterilizing effects of 3-isothiazolone and polyhexamethyleneguanidine phosphate on a mixed solution of 8 types of bacteria (Enterobacter aerogens ATCC 13048, Escherichia coli ATCC 11229, Micrococcus luteus ATCC 9341, Pseudomonas aeruginosa ATCC 15442, Klebsiella pneumoniae, Staphylococcus epidermis ATCC 155, Staphylococcus aureus ATCC 6538, and Bacillus subtilis ATCC 6984) were tested using Tryptic Soy Broth manufactured by Difco Corporation according to the two fold dilution method. The minimum inhibiting concentration of each biocide and mixtures thereof were determined by observation with the naked eye of the degree of muddiness of the lowest concentration in which growth was deteriorated after culturing a culture fluid in which biocides and microorganisms are added at 30 degrees centigrade for 3 days.

Consider `O=c1ccs[nH]1` [3-isothiazolone], for which the MIC turned out to be 18.8 µg/mL.

The MIC is the lowest concentration found to suppress growth.
